Data from patent publication US12312359B2 (Vitae Pharmaceuticals, LLC, priority 2016, dated 2025).

Columns and labels:
[1] = from 5 to 95% RH
Experimental: Moisture sorption/desorption data were collected on a VTI SGA-100 Vapor Sorption Analyzer. NaCl and PVP were used as calibration standards. Samples were not dried prior to analysis. Sorption and desorption data were collected over a range from 5% to 95% RH at 10% RH increments under a nitrogen purge. The equilibrium criterion used for analysis was less than 0.0100% weight change in 5 minutes with a maximum equilibration time of 3 hours. Data were not corrected for the initial moisture content of the samples.

[2] = Physical stability analysis of sesquifumaric acid salt forms (drying, heating); assay type: physicochemical
[3] = Concentration in water to achieve pH=7; assay type: physicochemical

Row | SMILES | DVS weight gain [1] [%] | Observation (weight change) ([2]; 70° C. vacuum 3 days) | Result (solid form after physical stability stress) ([2]; 70° C. vacuum 3 days) | Result (solid form after physical stability stress) ([2]; 95° C., under N2, 2 days) | Observation (LOD) ([2]; 105° C. 3 days) [% LOD] | Result (solid form after physical stability stress) ([2]; 105° C. 3 days) | Observation (weight change) ([2]; ambient vacuum 3 days) | Result (solid form after physical stability stress) ([2]; ambient vacuum 3 days) | Form change in variable temperature (VT)-XRPD ([2]; heating, XRPD pattern at 165° C.) | Changes upon vacuum drying or heating ([2]; vacuum drying or heating) | Concentration in water to achieve pH=7 [3] [mg/mL]
1 | CC(C)N(C(=O)c1cc(F)ccc1Oc1cncnc1N1CC2(CCN(CC3CCC(NS(C)(=O)=O)CC3)CC2)C1)C(C)C.CC(C)N(C(=O)c1cc(F)ccc1Oc1cncnc1N1CC2(CCN(CC3CCC(NS(C)(=O)=O)CC3)CC2)C1)C(C)C.O.O.O=C(O)/C=C/C(=O)O.O=C(O)/C=C/C(=O)O.O=C(O)/C=C/C(=O)O (stereo not drawn) [Form A, 5-fluoro-N,N-diisopropyl-2-((4-(7-(((1r,4r)-4-(methylsulfonamido)cyclohexyl)methyl)-2,7-diazaspiro[3.5]nonan-2-yl)pyrimidin-5-yl)oxy)benzamide sesquifumaric acid salt monohydrate] | 0.92 | no weight change | Form A + peaks | Form A | 20 | Form A | no weight change | Form A | No form change observed | No changes | 
2 | CCN(C(=O)c1cc(F)ccc1Oc1cncnc1N1CC2(CCN(CC3CCC(NS(=O)(=O)CC)CC3)CC2)C1)C(C)C.CCN(C(=O)c1cc(F)ccc1Oc1cncnc1N1CC2(CCN(CC3CCC(NS(=O)(=O)CC)CC3)CC2)C1)C(C)C.O=C(O)/C=C/C(=O)O.O=C(O)/C=C/C(=O)O.O=C(O)/C=C/C(=O)O (stereo not drawn) [Example 255, N-Ethyl-2-((4-(7-(((1r,4r)-4-(ethylsulfonamido)cyclohexyl)methyl)-2,7-diazaspiro[3.5]nonan-2-yl)pyrimidin-5-yl)oxy)-5-fluoro-N-isopropylbenzamide Sesquifumaric Acid Salt] |  |  |  |  |  |  |  |  |  |  | 224.7
3 | CCN(C(=O)c1cc(F)ccc1Oc1cncnc1N1CC2(CCN(CC3CCC(NS(=O)(=O)CC)CC3)CC2)C1)C(C)C.CS(=O)(=O)O.CS(=O)(=O)O (stereo not drawn) [Example 256, N-Ethyl-2-((4-(7-(((1r,4r)-4-(ethylsulfonamido)cyclohexyl)methyl)-2,7-diazaspiro[3.5]nonan-2-yl)pyrimidin-5-yl)oxy)-5-fluoro-N-isopropylbenzamide Bis-Methanesulfonic Acid Salt] |  |  |  |  |  |  |  |  |  |  | 261
